Data on twelve compounds can be found in patent US7919623B2, “Naphthyridine derivatives having inhibitory activity against HIV integrase” (Shionogi & Co., Ltd., priority 2004, dated 2011).

Molecules are shown by their SMILES. Counter-ions that a name gives are not always drawn.

In one data set the target is HIV integrase (Human immunodeficiency virus type 1 group M subtype B, UniProt P04585). As to the kind of experiment: biochemical.

By IC50 is commonly meant the midpoint of a concentration-inhibition curve. A lower IC50 goes with greater potency. As a reminder, the melting point is the temperature, or range, at which the solid turns liquid.

Method for HIV integrase: The inhibitory activities against integrase were determined by the assay described below. • (1) Preparation of DNA Solutions
Before using the DNA solutions, complementary chains were annealed by slowly cooling after boiling.
Streptavidin, obtained from Vector Laboratories, was dissolved in 0.1 M carbonate buffer (composition: 90 mM Na2CO3, 10 mM NaHCO3) at concentration of 40 μg/ml. After coating each well of immunoplates (obtained from NUNC) with 50 μl of the above solution at 4° C. over night, each well was washed twice with PBS (composition: 13.7 mM NaCl, 0.27 mM KCl, 0.43 mM Na2HPO4, 0.14 mM KH2PO4) and blocked with 300 μl of 1% skim milk in PBS for 30 min. Additionally, each well was washed twice with PBS and added 50 μl of substrate DNA solution (2 pmol/μl). The immunoplates were kept at room temperature for 30 min while shaking. Then, each well was washed twice with PBS and once with the distilled water.
Subsequently, in the each well prepared above were added 51 μl of the reaction solution prepared from 12 μl of the buffer (composition: 150 mM MOPS (pH7.2), 75 mM MnCl2, 50 mM 2-mercaptoethanol, 25% glycerol, 500 μg/ml bovine serum albumin-fraction V), and 39 μl of the distilled water. Then 9 μl of an integrase solution (30 pmol) was added and mixed well. In the well of negative control (NC) was added 9 μl of the integrase dilution buffer (composition: 20 mM MOPS (pH7.2), 400 mM potassium glutamate, 1 mM EDTA, 0.1% NP-40, 20% glycerol, 1 mM DTT, 4M urea), and mixed well using a plate mixer.
The plates were incubated at 30° C. for 60 minutes. The reaction solution was removed and washed three times with 250 μl of washing buffer (composition: 150 mM MOPS (pH7.2), 50 mM 2-mercaptoethanol, 25% glycerol, 500 μg/ml bovine serum albumin-fraction V).
Then each well was added with 53 μl of reaction solution prepared from 12 μl of buffer (composition: 150 mM MOPS (pH7.2), 75 mM MgCl2, 50 mM 2-mercaptoethanol, 25% glycerol, 500 μg/ml bovine serum albumin-fraction V) and 41 μl of distilled water. Further, each well was added with 6 μl of DMSO solution of a compound to be tested, and the well of positive control (PC) was added with 6 μl of DMSO, and mixed well by a plate mixer. After incubating the plate for 30 minutes at 30° C., was added 1 μl of target DNA (5 pmol/μl), and mixed well by a plate mixer.
After incubation for 10 minutes at 30° C., each plate was washed twice with PBS after removal of the reaction solution. Then, 100 μl of ×2000 diluted solution of anti-digoxigenin antibody labeled with alkaline phosphatase (sheep Fab fragment: Boehringer) was added allowed to bind for 1 hour at 30° C., and washed twice with PBS containing 0.05% Tween20 and once with PBS in this sequence. Next, 150 μl of the Alkaline phosphatase coloring buffer (composition: 10 mM p-Nitrophenylphosphate (obtained from Vector Laboratories), 5 mM MgCl2, 100 mM NaCl, 100 mM Tris-HCl (pH 9.5)) was added and allowed to react for 2 hours at 30° C. Then the reaction was terminated by the addition of 50 μl of 1N NaOH solution. The optical density at 405 nm (OD405nm) of each well was measured and the inhibition rate (IC50) was determined by the following expression. The inhibition rate(%)=100[1−{(C abs.−NC abs.)/(PC abs.−NC abs.)}]
C abs.; the OD of the well of the compound
NC abs.: the OD of the negative control (NC)
PC abs.: the OD of the positive control (PC)

`CCC(O)CNC(=O)c1nc(C(=O)NCC2CCCO2)c2cc(Cc3ccc(F)cc3)cnc2c1O` (stereo not drawn) [Example B-24, 3-(4-fluorobenzyl)-8-hydroxy[1,6]naphthyridine-5,7-dicarboxylic acid 7-[(2-hydroxybutyl)amide] 5-[(tetrahydrofuran-2-ylmethyl)amide]] had an IC50 against HIV integrase of 30.2 nM.

`CCN(CC)CCCNC(=O)c1nc(NC(=O)COC)c2cc(Cc3ccc(F)cc3)cnc2c1O` [Example B-12, 3-(4-fluorobenzyl)-8-hydroxy-5-(2-methoxyacetylamino)[1,6]naphthyridine-7-carboxylic acid (3-diethylaminopropyl)amide]: the IC50 on HIV integrase is 159 nM.

`CNC(=O)C(=O)Nc1nc(C(=O)NCCO)c(O)c2ncc(Cc3ccc(F)cc3)cc12` [Example B-27, N-[3-(4-fluorobenzyl)-8-hydroxy-7-(2-hydroxyethylcarbamoyl)[1,6]naphthyridine-5-yl]-N′-methyl oxalamide] registered a melting point of 136 to 137 °C.

`CCC(O)CNC(=O)c1nc(C(=O)NC(C)(C)C)c2cc(Cc3ccc(F)cc3)cnc2c1O` (stereo not drawn) [Example B-21, 3-(4-fluorobenzyl)-8-hydroxy[1,6]naphthyridine-5,7-dicarboxylic acid 5-tert-butylamide 7-[(2-hydroxybutyl)amide]] had an IC50 against HIV integrase of 17.9 nM.

Regarding `COCC(=O)Nc1nc(C(=O)NC(C)CO)c(O)c2ncc(Cc3ccc(F)cc3)cc12` (stereo not drawn) [Example B-10, 3-(4-fluorobenzyl)-8-hydroxy-5-(2-methoxyacetylamino)[1,6]naphthyridine-7-carboxylic acid (2-hydroxy-1-methylethyl)amide], the IC50 at HIV integrase was 49.7 nM.

As to `CNC(=O)C(=O)Nc1nc(C(=O)NCCOC)c(O)c2ncc(Cc3ccc(F)cc3)cc12` [Example A-3, N-[3-(4-fluorobenzyl)-8-hydroxy-7-(2-methoxyethylcarbamoyl)[1,6]naphthyridine-5-yl]-N′-methyloxal amide], half-maximal inhibition against HIV integrase (IC50) was put at 41.7 nM.

With `CCC(O)CNC(=O)c1nc(NC(=O)COC)c2cc(Cc3ccc(F)cc3)cnc2c1O` (stereo not drawn) [Example B-1, 3-(4-fluorobenzyl)-8-hydroxy-5-(2-methoxyacetylamino)-[1,6]naphthyridine-7-carboxylic acid (2-hydroxybutyl)amide], the IC50 against HIV integrase was 24.1 nM.

At HIV integrase, `CCC(O)CNC(=O)c1nc(C(=O)NCCOC)c2cc(Cc3ccc(F)cc3)cnc2c1O` (stereo not drawn) [Example B-22, 3-(4-fluorobenzyl)-8-hydroxy[1,6]naphthyridine-5,7-dicarboxylic acid 7-[(2-hydroxybutyl)amide] 5-[(2-methoxyethyl)amide]] had an IC50 of 36.1 nM.

Consider `COCC(=O)Nc1nc(C(=O)NCCCN(C)C)c(O)c2ncc(Cc3ccc(F)cc3)cc12` [Example B-13, 3-(4-fluorobenzyl)-8-hydroxy-5-(2-methoxyacetylamino)[1,6]naphthyridine-7-carboxylic acid (3-dimethylaminopropyl)amide], for which the IC50 against HIV integrase was 70.3 nM.

Consider `CCC(O)CNC(=O)c1nc(C(=O)NCCCN2CCCC2=O)c2cc(Cc3ccc(F)cc3)cnc2c1O` (stereo not drawn) [Example B-23, 3-(4-fluorobenzyl)-8-hydroxy[1,6]naphthyridine-5,7-dicarboxylic acid 7-[(2-hydroxybutyl)amide]5-{[3-(2-oxopyrrolidine-1-yl)propyl]amide}], for which the IC50 at HIV integrase is 35.3 nM.

In the case of `COCC(=O)Nc1nc(C(=O)NCCN(C)C)c(O)c2ncc(Cc3ccc(F)cc3)cc12` [Example B-9, 3-(4-fluorobenzyl)-8-hydroxy-5-(2-methoxyacetylamino)[1,6]naphthyridine-7-carboxylic acid (2-dimethylaminoethyl)amide], the IC50 against HIV integrase was 37.3 nM.

On HIV integrase, `COCC=Cc1nc(C(=O)NCCN(C)C)c(O)c2ncc(Cc3ccc(F)cc3)cc12` [Example B-20, 3-(4-fluorobenzyl)-8-hydroxy-5-(3-methoxypropenyl)[1,6]naphthyridine-7-carboxylic acid (2-dimethylaminoethyl)amide hydrochloride monohydrate] gave an IC50 of 34.5 nM.
